Assay results: PubChem BioAssay (NCI)
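Compound exposure: 48 hours, 5 concentrations, 96-well plates. GI50: concentration for 50% inhibition of growth. TGI is the concentration that stops growth completely.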

What was measured:
Test in all cases: inhibition of tumour cell growth, NCI panel, 48 h
786-0 renal = system: 786-0 renal
A549 NSCLC = system: A549 NSCLC
HOP-62 NSCLC = system: HOP-62 NSCLC
NCI-H23 lung = system: NCI-H23 lung
OVCAR-5 ovarian = system: OVCAR-5 ovarian
OVCAR-8 ovarian = system: OVCAR-8 ovarian
SK-MEL-2 melanoma = system: SK-MEL-2 melanoma
UACC-257 melanoma = system: UACC-257 melanoma
DU-145 prostate = system: DU-145 prostate
MDA-MB-435 = system: MDA-MB-435

SMILES	TGI (786-0 renal)	TGI (A549 NSCLC)	TGI (HOP-62 NSCLC)	TGI (NCI-H23 lung)	TGI (OVCAR-5 ovarian)	TGI (OVCAR-8 ovarian)	TGI (SK-MEL-2 melanoma)	TGI (UACC-257 melanoma)	GI50 (786-0 renal)	GI50 (A549 NSCLC)	GI50 (DU-145 prostate)	TGI (DU-145 prostate)	GI50 (HOP-62 NSCLC)	GI50 (MDA-MB-435)	TGI (MDA-MB-435)	GI50 (NCI-H23 lung)	GI50 (OVCAR-5 ovarian)	GI50 (OVCAR-8 ovarian)	GI50 (UACC-257 melanoma)
CC1=C(CC2C(=O)N(c3ccccc3)S(=O)(=O)NC2C)C(=O)N(c2ccccc2)S(=O)(=O)N1C (centres undefined)	> 100 µM	> 100 µM	> 100 µM	> 100 µM	> 100 µM	> 100 µM	> 100 µM												
CCCC(S(=O)(=O)c1ccccc1)S(=O)(=O)c1ccccc1	> 100 µM	> 100 µM	> 100 µM	> 100 µM	> 100 µM	> 100 µM	> 100 µM	> 100 µM											
NC1=NC(=O)C(CC(=O)Nc2ccc(Cl)cc2Cl)S1 (centres undefined)	> 100 µM	> 100 µM	> 100 µM	> 100 µM	> 100 µM	> 100 µM	> 100 µM	> 100 µM											
O=C1C=C(O)C(=Cc2c(O)cc(O)cc2O)C(O)=C1	> 100 µM	> 100 µM	> 100 µM	> 100 µM	> 100 µM	> 100 µM	> 100 µM	> 100 µM											
O=Nc1c(-c2c(O)[nH]c3ncccc23)[nH]c2ccccc12	> 100 µM	> 100 µM	> 100 µM	> 100 µM	> 100 µM	> 100 µM		> 100 µM	21.8 µM	5.71 µM	> 23.9 µM	> 100 µM	> 100 µM	> 100 µM	> 100 µM	> 100 µM	96.9 µM	> 100 µM	> 100 µM
O=C1c2ccccc2N2OC3(N4CCCC4)CCCCC3C12c1ccccc1 (centres undefined)	31.6 µM	52.1 µM	> 100 µM	86 µM		32.9 µM		45.6 µM											
CC1=C(C(=O)Nc2ccc(Cl)c(Cl)c2)C(c2ccc([N+](=O)[O-])cc2)C(C(=O)Nc2ccc(Cl)c(Cl)c2)=C(C)N1	11.1 µM	15.1 µM	8.7 µM	5.98 µM	10 µM	8.58 µM	4.79 µM	7.84 µM											
c1ccc2c(c1)CCc1c-2n[nH]c1-c1[nH]nc2c1CCc1ccccc1-2	> 100 µM	> 100 µM	> 100 µM	> 100 µM	> 100 µM	> 100 µM	> 100 µM	> 100 µM											
COc1cc(C2(C)SCCCS2)cc(OC)c1OC	> 100 µM	> 100 µM	> 100 µM	> 100 µM	> 100 µM	> 100 µM	> 100 µM	> 100 µM											
COc1ccc(OC(=O)CC2Cc3cc(OC)c(OC)c(OC)c3-c3ccc(SC)c(=O)cc32)cc1 (centres undefined)	> 36 µM	> 100 µM	> 39 µM	14.9 µM		> 37.1 µM	59 µM	> 54.2 µM											
CCOc1ccc(NC(=O)CCc2nnc(SC)o2)cc1	> 100 µM	> 100 µM	> 100 µM	> 100 µM	> 100 µM	> 100 µM	> 100 µM	> 100 µM											
CC(=O)/C(=C\c1ccccc1O)C(=O)Nc1ccccc1C	29.4 µM	89.1 µM	44.7 µM	37.2 µM	37.1 µM	> 100 µM	46.9 µM	> 100 µM											
Cc1ccccc1-n1c(N)c(-c2nc3ccccc3[nH]2)sc1=S	81.3 µM	71.3 µM	46 µM	45.4 µM	> 100 µM	84.2 µM	48.3 µM	36.6 µM											
COc1ccc(-c2cc(=O)c3c(O)cccc3o2)c(OC)c1OC	> 100 µM	> 100 µM	> 100 µM	> 100 µM	> 100 µM	> 100 µM	> 100 µM	> 100 µM											
COc1ccc(-c2[nH]c3ccccc3c2CCNS(=O)(=O)c2ccc(C)cc2)cc1	> 10 µM	> 10 µM	> 10 µM	> 10 µM	> 10 µM	> 10 µM	> 10 µM	> 10 µM											
C[CH2][Hg][S]c1ccccc1C(=O)O	2.95 µM	3.94 µM	12.3 µM	2.7 µM	3.26 µM			2.45 µM	1.59 µM	1.78 µM	1.83 µM	3.41 µM	2.58 µM	1.4 µM	2.95 µM	1.18 µM	1.77 µM		1.18 µM
Cc1cccc(NC(=O)/C(=N\N)C(c2cnc3ccc([N+](=O)[O-])cc3n2)[N+](=O)[O-])c1C (centres undefined)	> 100 µM	> 100 µM	> 100 µM	> 100 µM		> 100 µM	> 100 µM	> 100 µM											
